Tested on: lumican mRNA in MRC5 fibroblasts
Test: Stimulation of the lumican mRNA content in MRC5 fibroblasts (Northern Blot)
Type: cell-based, human
Conditions: for Mean value [mRNA lumican/36B4 mRNA]: MRC5 fibroblasts, lumican mRNA against housekeeping gene 36B4 mRNA
Protocol: Northern Blot technique for determining the RNA messengers in cells of low molecular weight proteoglycans, such as lumican and syndecan.
The stimulation of the lumican mRNA content in MRC5 fibroblasts incubated with increasing concentrations of the growth factor IGF-1 (Insulin-like Growth Factor 1, Sigma-Aldrich) was investigated. The content of mRNA of the proteoglycan lumican in cultures of human fibroblasts—MRC5 fibroblasts—was determined by the Northern Blot method.

How did the “Mean value [mRNA lumican/36B4 mRNA]” value (IGF-1 0.1 ng/ml) turn out when “IGF-1: growth factor IGF-1 (Insulin-like Growth Factor 1, Sigma-Aldrich)” was run?
The value was 1.38.

And the “Mean value [mRNA lumican/36B4 mRNA]” value (IGF-1 1 ng/ml)?
Its value is 2.

And the “Mean value [mRNA lumican/36B4 mRNA]” value (IGF-1 10 ng/ml)?
Its value is 3.2.

And the “Effect on mRNA content for lumican” value (cultures of MRC5 fibroblasts)?
Its value is “increases the mRNA content for lumican”.
